Source: ChEMBL document CHEMBL1201862, “PubChem BioAssay data set” (2004)
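1) Cells in 96-well plates. 2) Compound, 48 h, 5 concentrations. 3) Linear interpolation between surrounding doses. 4) Unreached endpoint = highest concentration. At the GI50, growth is halved.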 The source made the active and inactive calls. Cut-off read from the data, not from the text of the source: active = GI50 up to about 1.1 µM and inactive = higher.

What was measured:
Assay in all cases: DTP human tumour cell line panel, 48 h
A498 = test system: A498
A549 = test system: A549
CCRF-CEM = test system: CCRF-CEM
DLD-1 = test system: DLD-1
HCT-116 = test system: HCT-116
HCT-15 = test system: HCT-15
Hs-578T = test system: Hs-578T
K562 = test system: K562
MDA-MB-231 = test system: MDA-MB-231
Malme-3M = test system: Malme-3M
NCI-H460 = test system: NCI-H460
NCI-H522 = test system: NCI-H522
NCI/ADR-RES = test system: NCI/ADR-RES
OVCAR-3 = test system: OVCAR-3
OVCAR-8 = test system: OVCAR-8
PC-3 = test system: PC-3
RPMI-8226 = test system: RPMI-8226
SK-MEL-2 = test system: SK-MEL-2
T47D = test system: T47D
U-251 = test system: U-251

| SMILES | GI50 (A498) | GI50 (A549) | GI50 (CCRF-CEM) | GI50 (DLD-1) | GI50 (HCT-116) | GI50 (HCT-15) | GI50 (Hs-578T) | GI50 (K562) | GI50 (MDA-MB-231) | GI50 (Malme-3M) | GI50 (NCI-H460) | GI50 (NCI-H522) | GI50 (NCI/ADR-RES) | GI50 (OVCAR-3) | GI50 (OVCAR-8) | GI50 (PC-3) | GI50 (RPMI-8226) | GI50 (SK-MEL-2) | GI50 (T47D) | GI50 (U-251) |
| --- | --- | --- | --- | --- | --- | --- | --- | --- | --- | --- | --- | --- | --- | --- | --- | --- | --- | --- | --- | --- |
| CN(N=O)C(=O)N[C@H]1C(O)O[C@H](CO)[C@@H](O)[C@@H]1O (some centres undefined) | 593 µM (inactive) | 571 µM (inactive) | 485 µM (inactive) | 632 µM (inactive) | 573 µM (inactive) | 622 µM | > 750 µM (inactive) | 498 µM (inactive) | > 750 µM (inactive) | 600 µM (inactive) | 491 µM (inactive) | 578 µM (inactive) | 740 µM (inactive) | 653 µM (inactive) | 617 µM (inactive) | > 750 µM (inactive) | 565 µM (inactive) | 647 µM (inactive) | 611 µM (inactive) | 593 µM (inactive) |
| O=C1C=CC2(C=C1)C[C@H](NC(=O)OCc1ccccc1)C(=O)O2 | > 61.7 µM (inactive) | 38.1 µM (inactive) | 1.08 µM (active) | 5.53 µM (inactive) | 16 µM (inactive) | 11 µM | 40.6 µM (inactive) | 3.08 µM (inactive) | 17.5 µM (inactive) | 13 µM (inactive) | 24.3 µM (inactive) | 3.3 µM (inactive) |  | 15.5 µM (inactive) | 16 µM (inactive) | 16.1 µM (inactive) | 3.6 µM (inactive) | 19.3 µM (inactive) | 15.9 µM (inactive) | 19.3 µM (inactive) |
